Measured values reported in US9157121B2, “Method of treatment based on polymorphisms of the KCNQ1 gene” (Vanda Pharmaceuticals, Inc., priority 2009, dated 2015).
Several values for one entry are separate records, joined by “and”; a condition that tells them apart may be missing. Identical values can stand only once.

How the values were obtained:
[1] = tested on: QTc interval; assay: QTcF change following iloperidone or ziprasidone administration, by KCNQ1 and CYP2D6 genotype; format: in vivo, human; conditions: for QTcFmax Change: change from baseline
Description: The DNA variants in KCNQ1 noted above were examined for correlation with iloperidone-induced QT prolongation.
Individuals from an earlier study of CYP2D6 genotypes and a predisposition to QT prolongation were genotyped at each of the KCNQ1 SNPs above. 22 individuals had been given a dose of 8 mg of iloperidone b.i.d., 30 had been given 12 mg b.i.d., and 22 had been given 24 mg q.d.
The results were similar when ziprasidone was administered at a dosage of 80 mg b.i.d. The QTc changes for each genotype are shown below in Tables 4 and 5.
Tables 10 and 11 below show CYP2D6 metabolizer status against QTcFmax change from baseline for individuals having GG and non-GG genotypes, respectively, at the KCNQ1 79764 position SNP.
In order to assess the CYP2D6 component to such prolongation, QTc change was separately compared to the CYP2D6G1846A and CYP2D6C100T polymorphisms.
Tables 14 and 15 below show QTc changes in individuals grouped according to their KCNQ1 79764, CYP2D6G1846A, and CYP2D6C100T genotypes. […] Similarly, individuals who were GG at KCNQ1 79764 and had one or two mutant alleles at the CYP2D6 loci (i.e., AG or AA at CYP2D6G1846A and CT or TT at CYP2D6C100T) experienced the greatest QT prolongation.

[2] = tested on: QTc interval; conditions: cited from earlier work; for QTc prolongation: comparison of several antipsychotics
[3] = tested on: QT interval; assay: QT prolongation following iloperidone in 174 individuals genotyped at SNP_A-2279707 (rs179407); format: in vivo, human; conditions: oral 24 mg/day B.I.D. for two weeks; for High QT, + test (number of individuals) / Low QT, + test (number of individuals): rs179407 genotype TT; for High QT, − test (number of individuals) / Low QT, − test (number of individuals): rs179407 genotype not TT; for Odds Ratio: rs179407 TT versus not TT
[4] = biological target: CYP2D6 (Homo sapiens, UniProt P10635); conditions: cited from earlier work
Chain of CYP2D6 (P10635 whole entry): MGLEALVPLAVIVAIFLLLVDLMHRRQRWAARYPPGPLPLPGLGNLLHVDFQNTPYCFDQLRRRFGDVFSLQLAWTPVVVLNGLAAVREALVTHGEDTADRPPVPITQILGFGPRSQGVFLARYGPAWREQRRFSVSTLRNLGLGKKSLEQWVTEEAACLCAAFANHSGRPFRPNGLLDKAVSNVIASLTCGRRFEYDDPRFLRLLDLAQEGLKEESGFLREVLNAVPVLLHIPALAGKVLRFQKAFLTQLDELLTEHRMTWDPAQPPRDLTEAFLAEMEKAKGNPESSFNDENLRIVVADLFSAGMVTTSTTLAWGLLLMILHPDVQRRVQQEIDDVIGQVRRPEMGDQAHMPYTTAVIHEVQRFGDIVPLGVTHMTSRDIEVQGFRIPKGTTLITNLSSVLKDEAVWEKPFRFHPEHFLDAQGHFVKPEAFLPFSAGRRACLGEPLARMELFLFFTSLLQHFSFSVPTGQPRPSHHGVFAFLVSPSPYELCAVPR

[5] = tested on: QTc interval; conditions: cited from earlier work

SMILES: O=C1Cc2cc(CCN3CCN(c4nsc5ccccc45)CC3)c(Cl)cc2N1 [Ziprasidone, ziprasidone]
- QTcF change ([1]; ziprasidone 80 mg b.i.d., KCNQ1 79764 SNP genotype CC): 8.30 ms
- QTcF change ([1]; ziprasidone 80 mg b.i.d., KCNQ1 79764 SNP genotype CG): 6.19 ms
- QTcF change ([1]; ziprasidone 80 mg b.i.d., KCNQ1 79764 SNP genotype GG): 15.32 ms
- QTcF change ([1]; ziprasidone 80 mg b.i.d., KCNQ1 79764 SNP genotype Non-GG): 6.75 ms
- QTc prolongation [2]: highest degree of QTc prolongation, followed by ziprasidone

SMILES: Cc1nc2n(c(=O)c1CCN1CCC(c3noc4cc(F)ccc34)CC1)CCCC2 [risperidone]
- QTc prolongation [2]: associated with a prolongation of the QTc interval

SMILES: O=C(CCCN1CCC(O)(c2ccc(Cl)cc2)CC1)c1ccc(F)cc1 [haloperidol]
- increase in QTc with metabolic inhibition ([2]; with metabolic inhibitors of the CYP450 isoenzyme responsible for the metabolism of each drug): doubling of QTc

SMILES: OCCOCCN1CCN(C2=Nc3ccccc3Sc3ccccc32)CC1 [Quetiapine]
- QTc prolongation [2]: associated with a prolongation of the QTc interval

SMILES: Cc1cc2c(s1)Nc1ccccc1N=C2N1CCN(C)CC1 [olanzapine]
- QTc prolongation [2]: associated with a prolongation of the QTc interval

SMILES: COc1cc(C(C)=O)ccc1OCCCN1CCC(c2noc3cc(F)ccc23)CC1 [Iloperidone]
- High QT, + test (number of individuals) ([3]; threshold QT > 5 msec): 102
- Low QT, + test (number of individuals) ([3]; threshold QT > 5 msec): 47
- High QT, − test (number of individuals) ([3]; threshold QT > 5 msec): 15
- Low QT, − test (number of individuals) ([3]; threshold QT > 5 msec): 19
- Odds Ratio ([3]; threshold QT > 5 msec): 2.749
- High QT, + test (number of individuals) ([3]; threshold QT > 15 msec): 64
- Low QT, + test (number of individuals) ([3]; threshold QT > 15 msec): 85
- High QT, − test (number of individuals) ([3]; threshold QT > 15 msec): 9
- Low QT, − test (number of individuals) ([3]; threshold QT > 15 msec): 25
- Odds Ratio ([3]; threshold QT > 15 msec): 2.092
- High QT, + test (number of individuals) ([3]; threshold QT > 30 msec): 26
- Low QT, + test (number of individuals) ([3]; threshold QT > 30 msec): 123
- High QT, − test (number of individuals) ([3]; threshold QT > 30 msec): 2
- Low QT, − test (number of individuals) ([3]; threshold QT > 30 msec): 32
- Odds Ratio ([3]; threshold QT > 30 msec): 3.382
- QTcFmax Change ([1]; KCNQ1 79764 genotype GG, CYP2D6 metabolizer status Extensive): 16.4 ms
- QTcFmax Change ([1]; KCNQ1 79764 genotype GG, CYP2D6 metabolizer status Intermediate): 18.1 ms
- QTcFmax Change ([1]; KCNQ1 79764 genotype GG, CYP2D6 metabolizer status Poor): 33.6 ms
- QTcFmax Change ([1]; KCNQ1 79764 genotype Non-GG, CYP2D6 metabolizer status Extensive): 8.3 ms
- QTcFmax Change ([1]; KCNQ1 79764 genotype Non-GG, CYP2D6 metabolizer status Intermediate): 3.1 ms
- QTcFmax Change ([1]; KCNQ1 79764 genotype Non-GG, CYP2D6 metabolizer status Poor): 24.6 ms
- QTcF change ([1]; iloperidone 8 mg b.i.d., 12 mg b.i.d. or 24 mg q.d., KCNQ1 79764 SNP genotype CC): 10.38 ms
- QTcF change ([1]; iloperidone 8 mg b.i.d., 12 mg b.i.d. or 24 mg q.d., KCNQ1 79764 SNP genotype CG): 6.80 ms
- QTcF change ([1]; iloperidone 8 mg b.i.d., 12 mg b.i.d. or 24 mg q.d., KCNQ1 79764 SNP genotype GG): 17.58 ms
- QTcF change ([1]; iloperidone 8 mg b.i.d., 12 mg b.i.d. or 24 mg q.d., KCNQ1 79764 SNP genotype Non-GG): 7.83 ms
- QTcF change ([1]; iloperidone, CYP2D6C100T genotype CC): 10.8 ms
- QTcF change ([1]; iloperidone, CYP2D6C100T genotype CT): 16.9 ms
- QTcF change ([1]; iloperidone, CYP2D6C100T genotype Non-CC): 19.2 ms
- QTcF change ([1]; iloperidone, CYP2D6C100T genotype TT): 31.3 ms
- QTcF change ([1]; iloperidone, CYP2D6G1846A genotype AA): 41.6 ms
- QTcF change ([1]; iloperidone, CYP2D6G1846A genotype AG): 15.9 ms
- QTcF change ([1]; iloperidone, CYP2D6G1846A genotype GG): 11.1 ms
- QTcF change ([1]; iloperidone, CYP2D6G1846A genotype Non-GG): 18.5 ms
- QTcF change ([1]; iloperidone, KCNQ1 78927 position SNP genotype AA): 7.21 ms
- QTcF change ([1]; iloperidone, KCNQ1 78927 position SNP genotype AC): 9.19 ms
- QTcF change ([1]; iloperidone, KCNQ1 78927 position SNP genotype CC): 14.08 ms
- QTcF change ([1]; iloperidone, KCNQ1 78927 position SNP genotype Non-CC): 6.46 ms
- QTcF change ([1]; iloperidone, KCNQ1 79764 GG and CYP2D6C100T CC): 19.2 (n = 15) msec
- QTcF change ([1]; iloperidone, KCNQ1 79764 GG and CYP2D6C100T non-CC): 23.5 (n = 10) msec
- QTcF change ([1]; iloperidone, KCNQ1 79764 GG and CYP2D6G1846A GG): 19.5 (n = 15) msec
- QTcF change ([1]; iloperidone, KCNQ1 79764 GG and CYP2D6G1846A non-GG): 25.5 (n = 10) msec
- average QTc change, GG genotype relative to non-GG genotype ([1]; iloperidone, KCNQ1 79764 SNP): more than twice the change in individuals with a non-GG genotype
- QTcF change ([1]; iloperidone, KCNQ1 79764 non-GG and CYP2D6C100T CC): 7.4 (n = 35) msec
- QTcF change ([1]; iloperidone, KCNQ1 79764 non-GG and CYP2D6C100T non-CC): 12.6 (n = 7) msec
- QTcF change ([1]; iloperidone, KCNQ1 79764 non-GG and CYP2D6G1846A GG): 7.6 (n = 34) msec
- QTcF change ([1]; iloperidone, KCNQ1 79764 non-GG and CYP2D6G1846A non-GG): 9.6 (n = 6) msec
- QTcF change ([1]; iloperidone, KCNQ1 286414 position SNP genotype AA): 12.50 ms and 12.51 ms
- QTcF change ([1]; iloperidone, KCNQ1 286414 position SNP genotype AG): 3.15 ms
- QTcF change ([1]; iloperidone, KCNQ1 286414 position SNP genotype GG): 10.34 ms
- QTcF change ([1]; iloperidone, KCNQ1 286414 position SNP genotype Non-AA): 5.16 ms
- metabolizing enzyme [4]: metabolized by CYP2D6
- effect on the QTcF duration with metabolic inhibition ([5]; adding an inhibitor of CYP2D6): increases the effect of iloperidone on the QTcF duration
- effect on QTc duration ([5]; in vivo): some effects on QTc duration
